Measured values: EP2966448B1, “METHOD FOR THE PREDICTION OR PROGNOSIS OF THE RESPONSE OF A HUMAN SUBJECT SUFFERING FROM CANCER TO TREATMENT WITH AN ANTAGONIST OF THE NK1 RECEPTOR” (priority 2013, dated 2014)
Where two headings read alike, the source gives them in different places.

What was measured:
Fibrosarcoma = assay: Inhibition of primary tumor cell cultures (48 hours) vs NK1 receptor immunostaining (Example 1); type: cell-based; conditions: Homo sapiens, 1 micromolar, read-out: Percentage of inhibition of cell cultures
Protocol: (§1) Cell cultures. To obtain tumor cells from human primary tumors we used the method described in De Bari et al. (De Bari et al. 2001). Briefly, small pieces of the tumors were digested into a hyaluronidase solution (Sigma-Aldrich, USA) at a concentration of 1 mg/ml during 15 minutes at 37°C, and then they were treated with 6 mg/ml of collagenase type IV (Invitrogen) during 2 hours at 37°C. Consecutively, cells were washed, and resuspended in the DMEM culture medium with high concentration of glucose (Dulbecco's Modified Eagle's Medium, Invitrogen) supplemented with 1% of antibiotics-antimycotics (Invitrogen) and with 1% of sodium pyruvate (Invitrogen), and the cells were seeded in culture slides at a concentration of 10.000 cells per square centimeter. When cells reached confluence, the adherent cells were separated using sterile trypsin at 0,5% (Invitrogen) and they were used among passages 3 and 9. For the assays shown next, tumor cells were seeded on slides at a concentration of 25.000 cells per well. A total of 6 wells containing the tumor cells were used as survival control. […] All the cultures were kept during 48 hours and later on recollected for their analysis.
(§2) Immunohistochemistry techniques. The presence of NK1 receptors was also analyzed using immunohistochemistry techniques. Briefly, a sample of each of the cultures of the cell lines used in the present invention, was centrifuged (5 minutes at 1.500 rpm) and the pellet obtained was dehydrated using increasing concentrations of ethanol and, finally, xylol. Then, said dehydrated samples were embedded in paraffin, creating a block of cells. Such paraffin blocks were cut with a microtome at 5 microns thickness, and were placed on microscope slides adequate to perform immunohistochemistry techniques. Consecutively, they were de-paraffinized by immersing them in xylol, to be finally hydrated using a solution containing decreasing concentrations of ethanol, and finally submerged them into water. […] After this, the samples were left to cool down at room temperature for 10 minutes. The endogenous peroxidase activity was blocked with 3% peroxide of hydrogen for 30 minutes at room temperature. After washing the samples with 0.05 M of Tris buffer, they were incubated with 10% non-immune pork serum at for 30 minutes at room temperature. To analyze the expression of NK1 receptors, the cellular samples were incubated in the presence of anti-NK1 antibodies (S8305, Sigma-Aldrich) diluted 1:1000, overnight at 4°C. Afterwards, the samples were washed in Tris buffer 0.05 M at room temperature. The next step was the addition of Envision System-HRP (Dako) reagents for 30 minutes at room temperature. Then, the samples were washed again in Tris buffer 0.05 M and the immunoreactivity was visualized through light microscopy with a chromogenic solution containing 3,3'-Diaminobenzidine (DAB+; Dako, USA). To differentiate the cell nuclei, they were slightly stained with hematoxylin. As negative control, it was used samples not incubated with the primary antibody anti-NK1, which was replaced by non-immune serum. All the samples were evaluated.
(§3) To value the immunostaining in each of the cases six cuts were performed to be analyzed by the immunohistochemistry technique. In each of the six cuts, it was counted cells in 20 fields (magnification 400x) using an Olympus microscope (model CX31). In each field it was counted the total number of cells and the number of cells presenting immunostaining, calculating afterwards the percentage of cells which presented immunostaining.

Renal cell carcinoma = assay: as above; type: cell-based; conditions: Homo sapiens, 1 micromolar, read-out: Percentage of inhibition of cell cultures
Protocol: as §1, §2, §3

Burkitt Lymphoma [1] = assay: Inhibition of primary tumor cell cultures vs Kras mutation (Example 2); type: cell-based, human; conditions: Homo sapiens, 100 micromolar, read-out: Percentage of inhibition of cell cultures
Protocol: as §1
(§4) In each case the presence or not of mutations in K-ras gene was determined.
(§5) To determine the existence of mutations in the K-ras gene DNA from cancer tumor cells was extracted from samples obtained from the different cancer tumor cells, using DNA extraction kits from Takara (Madison, WI, US) or Ambion (Huntingdon, Cambridgeshire, United Kingdom), following the manufacturer's instructions, and as it has been previously published (Di Fiore F, et al. 2007). Consecutively it was analyzed by sequencing the exon 2 of the KRAS gene, , by means of PCR amplification from previously extracted cancer tumor DNA, using the following sense primer (SEQ ID NO. 15): 5'-[sequence]-3' and anti-sense primer (SEQ ID NO. 16): 5'-[sequence]-3'. After the purification using the Qiagen extraction kit, the PCR products were sequenced using the Big Dye Terminator Kit V3.1 (Applied Biosystems, Foster City, CA, U.S.) and an ABI Prism 377 or 3100 DNA sequencer (Applied Biosystems). The presence of a heterozygous mutation in the KRAS gene in cancer tumor cells of the cultures was defined as the appearance of a mutant peak of a height of at least a third of the wild type. All the sequence analysis were executed at least twice in two independent PCR.
(§6) The antibody against NK1 receptor (Table 16) was used at 1/50 concentration. The percentages of inhibition are expressed in percentage of variation in relation to control ± standard deviation.

[2] = test system: Lung carcinoma (small cell lung carcinoma); assay: as above; type: cell-based, human; conditions: Homo sapiens, 100 micromolar, read-out: Percentage of inhibition of cell cultures
Protocol: (§7) To obtain tumor cells from human primary tumors we used the method described in De Bari et al. (De Bari et al. 2001). Briefly, small pieces of the tumors were digested into a hyaluronidase solution (Sigma-Aldrich, USA) at a concentration of 1 mg/ml during 15 minutes at 37°C, and then they were treated with 6 mg/ml of collagenase type IV (Invitrogen) during 2 hours at 37°C. Consecutively, cells were washed, and resuspended in the DMEM culture medium with high concentration of glucose (Dulbecco's Modified Eagle's Medium, Invitrogen) supplemented with 1% of antibiotics-antimycotics (Invitrogen) and with 1% of sodium pyruvate (Invitrogen), and the cells were seeded in culture slides at a concentration of 10.000 cells per square centimeter. When cells reached confluence, the adherent cells were separated using sterile trypsin at 0,5% (Invitrogen) and they were used among passages 3 and 9. For the assays shown next, tumor cells were seeded on slides at a concentration of 25.000 cells per well. A total of 6 wells containing the tumor cells were used as survival control. […] All the cultures were kept during 48 hours and later on recollected for their analysis.
as §4, §5, §6

Prostate carcinoma = assay: as above; type: cell-based, human; conditions: Homo sapiens, 100 micromolar, read-out: Percentage of inhibition of cell cultures
Protocol: as §1, §4, §5
(§8) The percentages of inhibition are expressed in percentage of variation in relation to control ± standard deviation.

Endometrium carcinoma = assay: cells; conditions: Homo sapiens, 1 micromolar
Protocol: as §1, §2, §3

[3] = test system: Melanoma (Nodular Melanoma); assay: Inhibition of primary tumor cell cultures vs Kras mutation (Example 2); type: cell-based, human; conditions: Homo sapiens, 100 micromolar, read-out: Percentage of inhibition of cell cultures
Protocol: as §1, §4, §5, §8

[4] = test system: Thyroid carcinoma (folliculary type); assay: Inhibition of primary tumor cell cultures (48 hours) vs NK1 receptor immunostaining (Example 1); type: cell-based; conditions: Homo sapiens, 1 micromolar, read-out: Percentage of inhibition of cell cultures
Protocol: as §1, §2, §3

[5] = test system: Lung carcinoma (small cell type); assay: as above; type: cell-based; conditions: Homo sapiens, 1 micromolar, read-out: Percentage of inhibition of cell cultures
Protocol: as §1, §2, §3

Glioma = assay: as above; type: cell-based; conditions: Homo sapiens, 1 micromolar, read-out: Percentage of inhibition of cell cultures
Protocol: as §1, §2, §3

Ewing Sarcoma = assay: as above; type: cell-based; conditions: Homo sapiens, 1 micromolar, read-out: Percentage of inhibition of cell cultures
Protocol: as §1, §2, §3

[6] = test system: Thyroid carcinoma (follicular carcinoma); assay: Inhibition of primary tumor cell cultures vs Kras mutation (Example 2); type: cell-based, human; conditions: Homo sapiens, 100 micromolar, read-out: Percentage of inhibition of cell cultures
Protocol: as §7, §4, §5, §6

Burkitt Lymphoma [7] = assay: Inhibition of primary tumor cell cultures (48 hours) vs NK1 receptor immunostaining (Example 1); type: cell-based; conditions: Homo sapiens, 1 micromolar, read-out: Percentage of inhibition of cell cultures
Protocol: as §1, §2, §3

[8] = test system: Non Hodgkin Lymphoma B (diffuse B cell lymphoma); assay: Inhibition of primary tumor cell cultures vs Kras mutation (Example 2); type: cell-based, human; conditions: Homo sapiens, B-cell, Cases with Kras mutated; 100 micromolar; read-out: Percentage of inhibition of cell cultures
Protocol: as §1, §4, §5, §8

[9] = NK1 receptor immunostaining Group 1 (less than 20% of the cells)
[10] = NK1 receptor immunostaining Group 2 (20-80% of the cells)
[11] = NK1 receptor immunostaining Group 3 (more than 80% of the cells)
[12] = NK1 receptor immunostaining Intensity grade 1
[13] = NK1 receptor immunostaining Intensity grade 2
[14] = NK1 receptor immunostaining Intensity grade 3
[15] = Cases with Kras non-mutated (wild type)

CC(=O)N1CCN([C@H]2CCN(C(=O)N(C)[C@H](C)c3cc(C(F)(F)F)cc(C(F)(F)F)c3)[C@@H](c3ccc(F)cc3C)C2)CC1 [Casopitant] gave an inhibition at 1 µM (Fibrosarcoma; [9]) of 15 ± 2%, an inhibition at 1 µM (Fibrosarcoma; [10]) of 47 ± 5% and an inhibition at 1 µM (Fibrosarcoma; [11]) of 93 ± 4%. It also gave an inhibition at 1 µM (Fibrosarcoma; [12]) of 35 ± 6%, an inhibition at 1 µM (Fibrosarcoma; [13]) of 55 ± 3% and an inhibition at 1 µM (Fibrosarcoma; [14]) of 92 ± 4%. For the same molecule, the inhibition at 1 µM (Renal cell carcinoma; [9]) was 16 ± 4%, the inhibition at 1 µM (Renal cell carcinoma; [10]) was 46 ± 3% and the inhibition at 1 µM (Renal cell carcinoma; [11]) was 91 ± 5%. For the same molecule, the inhibition at 1 µM (Renal cell carcinoma; [12]) was 34 ± 2%, the inhibition at 1 µM (Renal cell carcinoma; [13]) was 55 ± 5% and the inhibition at 1 µM (Renal cell carcinoma; [14]) was 91 ± 4%. The inhibition at 100 µM (Burkitt Lymphoma [1]; Cases with Kras mutated) was 25 ± 2%, the inhibition at 100 µM (Burkitt Lymphoma [1]; [15]) was 92 ± 5% and the inhibition at 100 µM ([2]; Cases with Kras mutated) was 26 ± 4%. For the same molecule, the inhibition at 100 µM [2, 15] was 94 ± 2%, the inhibition at 100 µM (Prostate carcinoma; Cases with Kras mutated) was 23 ± 3% and the inhibition at 100 µM (Prostate carcinoma; [15]) was 93 ± 7%. The inhibition at 1 µM (Endometrium carcinoma; read-out: Percentage of inhibition of cell cultures, NK1 receptor immunostaining Group 1 (less than 20% of the cells)) was 16 ± 3%, the inhibition at 1 µM (Endometrium carcinoma; read-out: Percentage of inhibition of cell cultures, NK1 receptor immunostaining Group 2 (20-80% of the cells)) was 46 ± 3% and the inhibition at 1 µM (Endometrium carcinoma; read-out: Percentage of inhibition of cell cultures, NK1 receptor immunostaining Group 3 (more than 80% of the cells)) was 92 ± 3%. For the same molecule, the inhibition at 1 µM (Endometrium carcinoma; read-out: Percentage of inhibition of cell cultures, NK1 receptor immunostaining Intensity grade 1) was 34 ± 5%, the inhibition at 1 µM (Endometrium carcinoma; read-out: Percentage of inhibition of cell cultures, NK1 receptor immunostaining Intensity grade 2) was 55 ± 5% and the inhibition at 1 µM (Endometrium carcinoma; read-out: Percentage of inhibition of cell cultures, NK1 receptor immunostaining Intensity grade 3) was 94 ± 4%. For the same molecule, the inhibition at 100 µM ([3]; Cases with Kras mutated) was 25 ± 6%, the inhibition at 100 µM [3, 15] was 94 ± 6% and the inhibition at 1 µM [4, 9] was 14 ± 3%. For the same molecule, the inhibition at 1 µM [4, 10] was 44 ± 3%, the inhibition at 1 µM [4, 11] was 94 ± 4% and the inhibition at 1 µM [4, 12] was 34 ± 3%. The inhibition at 1 µM [4, 13] was 54 ± 5%, the inhibition at 1 µM [4, 14] was 93 ± 2% and the inhibition at 1 µM [5, 9] was 12 ± 2%. For the same molecule, the inhibition at 1 µM [5, 10] was 45 ± 2%, the inhibition at 1 µM [5, 11] was 93 ± 4% and the inhibition at 1 µM [5, 12] was 33 ± 2%. The inhibition at 1 µM [5, 13] was 55 ± 3%, the inhibition at 1 µM [5, 14] was 94 ± 4% and the inhibition at 1 µM (Glioma; [9]) was 16 ± 3%. For the same molecule, the inhibition at 1 µM (Glioma; [10]) was 46 ± 4%, the inhibition at 1 µM (Glioma; [11]) was 93 ± 5% and the inhibition at 1 µM (Glioma; [12]) was 36 ± 3%. For the same molecule, the inhibition at 1 µM (Glioma; [13]) was 54 ± 5%, the inhibition at 1 µM (Glioma; [14]) was 91 ± 3% and the inhibition at 1 µM (Ewing Sarcoma; [9]) was 15 ± 2%. For the same molecule, the inhibition at 1 µM (Ewing Sarcoma; [10]) was 47 ± 5%, the inhibition at 1 µM (Ewing Sarcoma; [11]) was 93 ± 5% and the inhibition at 1 µM (Ewing Sarcoma; [12]) was 33 ± 4%. The inhibition at 1 µM (Ewing Sarcoma; [13]) was 54 ± 3%, the inhibition at 1 µM (Ewing Sarcoma; [14]) was 92 ± 4% and the inhibition at 100 µM ([6]; Cases with Kras mutated) was 26 ± 4%. It also gave an inhibition at 100 µM [6, 15] of 96 ± 4%, an inhibition at 1 µM (Burkitt Lymphoma [7]; [9]) of 15 ± 3% and an inhibition at 1 µM (Burkitt Lymphoma [7]; [10]) of 46 ± 5%. It also gave an inhibition at 1 µM (Burkitt Lymphoma [7]; [11]) of 94 ± 5%, an inhibition at 1 µM (Burkitt Lymphoma [7]; [12]) of 37 ± 5% and an inhibition at 1 µM (Burkitt Lymphoma [7]; [13]) of 55 ± 3%. The inhibition at 1 µM (Burkitt Lymphoma [7]; [14]) was 93 ± 3% and the inhibition at 100 µM [8] was 26 ± 3%.
